Earlier results as cited in publication PMC5745029 (Bioconjugate chemistry, 2010).

Target: T1, human apical sodium dependent bile acid transporter (ASBT) (Homo sapiens, UniProt Q12908)
T1 sequence (Q12908 1-348): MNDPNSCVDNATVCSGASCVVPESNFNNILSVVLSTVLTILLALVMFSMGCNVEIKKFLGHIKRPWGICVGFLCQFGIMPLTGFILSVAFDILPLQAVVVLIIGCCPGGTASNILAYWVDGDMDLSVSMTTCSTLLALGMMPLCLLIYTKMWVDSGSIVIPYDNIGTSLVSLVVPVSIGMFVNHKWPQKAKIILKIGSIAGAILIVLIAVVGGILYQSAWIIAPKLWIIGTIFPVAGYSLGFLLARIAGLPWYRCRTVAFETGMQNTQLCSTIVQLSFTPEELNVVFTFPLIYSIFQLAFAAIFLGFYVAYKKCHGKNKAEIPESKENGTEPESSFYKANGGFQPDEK
Conditions: ASBT-MDCK monolayer

SMILES: C[C@H](CCC(=O)O)[C@H]1CC[C@H]2[C@@H]3[C@H](O)C[C@@H]4C[C@H](O)CC[C@]4(C)[C@H]3CC[C@]12C [CDCA, chenodeoxycholate]
- ASBT inhibition among native bile acids: most potent inhibitor among native bile acids
